# Laboratory results published in patent EP4660196A1, “CRYSTAL FORM OF COMPOUND, PREPARATION METHOD THEREFOR AND USE THEREOF” (Felicamed Biotechnology Co., Ltd., priority 2023, dated 2024).
# Values joined by “and” are separate entries in the source; they are usually repeats but may differ in a detail not shown here. Equal entries are not always repeated. Where two headings read alike, the source gives them in different places.
# Tests used:
# [1] = Pharmacokinetics of free crystal form A in Beagle dogs (i.v. and intragastric); type: in vivo; settings: dog
# Experimental: Preparations were administered to the group C on the second day to the seventh day were prepared in the same way as that on the first day.
# All the animals in this experiment were randomly divided into 4 groups (3 dogs/sex/group). The animals in the group A, the group B, and the group D were fasted before administration, and the animals in the group C were fasted before the first administration and the last administration. All the animals were fasted for at least 12 h before administration, and food was resumed 4 h after administration. All the animals had free access to water and food during the experiment. Table 25 Animal groups and administration methods
# The animals in the group A were intravenously injected with the drug at 2 mg/kg, and blood samples were collected from the jugular vein before and 0.033 h, 0.083 h, 0.25 h, 0.5 h, 1 h, 2 h, 4 h, 8 h, 12 h, and 24 h after administration. The animals in the group B and the group D received single intragastric administration of the drugs at 2 mg/kg and 20 mg/kg, respectively, and blood samples were collected from the jugular vein before and 0.083 h, 0.25 h, 0.5 h, 1 h, 2 h, 4 h, 8 h, 12 h, and 24 h after administration. […] Blood samples were collected from the jugular vein before the first administration and the seventh administration and 0.083 h, 0.25 h, 0.5 h, 1 h, 2 h, 4 h, 8 h, 12 h, and 24 h after administration. Blood samples were collected from the jugular vein before administration and 0.5 h after administration from the second administration to the sixth administration. The sample collected before the second administration was the sample collected 24 h after the first administration.
# The blood samples from the animals were collected through the jugular vein, with a blood sample volume of 0.5 mL/time. All collected whole blood samples were placed in centrifuge tubes containing ethylene diamine tetraacetic acid potassium salt (EDTA-K2), and the centrifuge tubes were turned upside down to allow the anticoagulant and blood to be fully mixed. All the samples were placed on wet ice before centrifugation and centrifuged at 1524 g for 10 min to separate plasma. The plasma samples were transferred to new centrifuge tubes and stored at -90°C to […] until analysis.
# The drug concentration in the plasma of each Beagle dog was determined by liquid chromatography with tandem mass spectrometry (LC-MS/MS). The obtained plasma concentration data was analyzed by using the pharmacokinetic processing software WinNonlin 8.0 with a non-compartmental model to calculate relevant pharmacokinetic parameters.
# [2] = type: physicochemical; settings: 37°C; for S: solubility: calculated as free form; for FC: crystal transfer: XRPD of solid; for pH: pH of filtrate
# [3] = type: physicochemical; settings: for S: solubility: 1440 min; for FC: crystal transfer: XRPD of solid; for pH: pH of filtrate
# [4] = Solid-state stability (XRPD, UPLC purity); settings: for Crystal form Transform: XRPD; for Purity (area%): starting purity 99.82 (hydrochloride), 99.72 (free); for Area (%): UPLC main peak (#Peak 1, RRT 1.00)
# [5] = Mechanical stability (grinding, tableting at 350 MPa, XRPD); type: physicochemical
# [6] = DVS
# Experimental: DVS isotherms were collected on an SMS (Surface Measurement Systems) DVS Intrinsic. Relative humidity at 25°C was calibrated using the deliquescence points of LiCl, Mg(NO3)2, and KCl. Table 9 DVS testing parameters
# [7] = for Carr index: (tapped density - bulk density) / tapped density; for Average angle of repose (°) / Average bulk density / Average tapped density: mean of three tests
# Experimental: A method for testing the density and the tapped density included: (1) a certain mass of to-be-assessed sample was placed into a 5 mL measuring cylinder, and the volume at this moment was recorded. The bulk density was calculated by dividing the mass of the sample by the volume at this moment. (2) The measuring cylinder was slightly tapped 200 times, the final volume was recorded, and the tapped density was calculated by dividing the mass of the sample by the final volume. (3) Three parallel tests were conducted. A method for testing the angle of repose included: (1) a funnel was fixed vertically to a bottom surface, and the material was slowly placed into the funnel. (2) A well-proportioned cone of the material was formed on the bottom surface. The height and bottom surface diameter of the cone were measured. (3) Three parallel tests were conducted.
# Angle of repose α = […], where h is the cone height, and D is the cone diameter.
# [8] = single values of three parallel tests
structure (smiles),measurement,setting,value
CC[S@@](=N)(=O)C[C@H]1CC[C@H](N(C)c2ncnc3[nH]ccc23)CC1 [Free crystal form A],AUC0-t of the unit dose,[1]; in vivo,4380 ng·kg·h/mL/mg and 4990 ng·kg·h/mL/mg and 5030 ng·kg·h/mL/mg
same,clinical observation,[1]; in vivo,no obvious abnormalities were found
same,male-to-female ratio of AUC0-t,[1]; in vivo,1.10 and 0.716 and 0.877
same,male-to-female ratio of Cmax,[1]; in vivo,1.36 and 0.810 and 0.894
same,ratio of AUC0-t of the seventh administration and the first administration,[1]; in vivo,0.887
same,ratio of Cmax of the seventh administration and the first administration,[1]; in vivo,0.964
same,unit dose AUC0-t ratio of 20 mg/kg and 2 mg/kg,[1]; in vivo,1.15
same,unit dose Cmax,[1]; in vivo,675 kg·ng/mL/mg and 785 kg·ng/mL/mg and 665 kg·ng/mL/mg
same,unit dose Cmax ratio of 20 mg/kg and 2 mg/kg,[1]; in vivo,0.985
same,steady-state volume of distribution (Vdss) relative to total body fluid volume,"[1]; in vivo, iv, 2 mg/kg",1.57 times
same,total clearance (CL) relative to liver blood flow,"[1]; in vivo, iv, 2 mg/kg",0.110 times
same,Tmax,"[1]; plasma, po, read-out: average time to peak drug concentration",0.792 to 1.33 h
same,S: solubility,"[2]; FaSSIF, 1 h, 60 min",2200 µg/mL
same,S: solubility,"[2]; FaSSIF, 2 h, 120 min",2200 µg/mL
same,S: solubility,"[2]; FaSSIF, 4 h, 240 min",2300 µg/mL
same,S: solubility,"[2]; FaSSIF, 24 h, 1440 min",2400 µg/mL
same,S: solubility,"[2]; H2O, 1 h, 60 min",2100 µg/mL
same,S: solubility,"[2]; H2O, 2 h, 120 min",2100 µg/mL
same,S: solubility,"[2]; H2O, 4 h, 240 min",2200 µg/mL
same,S: solubility,"[2]; H2O, 24 h, 1440 min",2400 µg/mL
same,FC: crystal transfer,"[2]; FaSSIF, 1 h",No
same,FC: crystal transfer,"[2]; FaSSIF, 2 h",No
same,FC: crystal transfer,"[2]; FaSSIF, 4 h",No
same,FC: crystal transfer,"[2]; FaSSIF, 24 h",No
same,FC: crystal transfer,"[2]; FeSSIF, 1 h",No
same,FC: crystal transfer,"[2]; FeSSIF, 2 h",No
same,FC: crystal transfer,"[2]; FeSSIF, 4 h",No
same,FC: crystal transfer,"[2]; FeSSIF, 24 h",No
same,FC: crystal transfer,"[2]; H2O, 1 h",No
same,FC: crystal transfer,"[2]; H2O, 2 h",No
same,FC: crystal transfer,"[2]; H2O, 4 h",No
same,FC: crystal transfer,"[2]; H2O, 24 h",No
same,FC: crystal transfer,"[2]; SGF, 1 h",No
same,FC: crystal transfer,"[2]; SGF, 2 h",No
same,FC: crystal transfer,"[2]; SGF, 4 h",No
same,FC: crystal transfer,"[2]; SGF, 24 h",No
same,pH,"[2]; FaSSIF, 1 h",6.6
same,pH,"[2]; FaSSIF, 2 h",6.6
same,pH,"[2]; FaSSIF, 4 h",6.6
same,pH,"[2]; FaSSIF, 24 h",6.6
same,pH,"[2]; FeSSIF, 1 h",5.3
same,pH,"[2]; FeSSIF, 2 h",5.3
same,pH,"[2]; FeSSIF, 4 h",5.3
same,pH,"[2]; FeSSIF, 24 h",5.3
same,pH,"[2]; H2O, 1 h",6.7
same,pH,"[2]; H2O, 2 h",6.6
same,pH,"[2]; H2O, 4 h",6.7
same,pH,"[2]; H2O, 24 h",7.3
same,pH,"[2]; SGF, 1 h",5.1
same,pH,"[2]; SGF, 2 h",5.2
same,pH,"[2]; SGF, 4 h",5.2
same,pH,"[2]; SGF, 24 h",5.2
same,S: solubility,"[3]; Buffer (pH=4.5), room temperature, 24 h, calculated as free form",>9100 µg/mL
same,FC: crystal transfer,"[3]; Buffer (pH=2.0), 24 h",No
same,FC: crystal transfer,"[3]; Buffer (pH=7.4), 24 h",No
same,S: solubility,"[3]; buffer, pH 2, 1440 min",6200 µg/mL
same,S: solubility,"[3]; buffer, pH 4.5, 1440 min",> 9100 µg/mL
same,pH,"[3]; Buffer (pH=2.0), room temperature, 24 h",5.6
same,pH,"[3]; Buffer (pH=4.5), room temperature, 24 h",5.0
same,pH,"[3]; Buffer (pH=7.4), room temperature, 24 h",7.4
same,Crystal form Transform,"[4]; 25°C/60% RH/4 weeks, open",No
same,Purity (area%),"[4]; 25°C/60% RH/4 weeks, open",99.71 area%
same,Crystal form Transform,"[4]; 40°C/75% RH/4 weeks, open",No
same,Purity (area%),"[4]; 40°C/75% RH/4 weeks, open",99.72 area%
same,Crystal form Transform,"[4]; 80°C/1 d, closed",No
same,Area (%),[4]; 25°C/60% RH/4 weeks,99.71%
same,Area (%),[4]; 40°C/75% RH/4 weeks,99.72%
same,Area (%),[4]; 80°C/1 d,99.71%
same,Results of mechanical stability After grinding,[5]; manual grinding,"The crystal form remains unchanged, but the crystallinity is slightly reduced"
same,Results of mechanical stability After tableting,"[5]; tablet press, 350 MPa","The crystal form remains unchanged, but the crystallinity is slightly reduced"
same,Hygroscopic weight gain (wt%) at 25°C/80% RH,[6],0.39 wt%
same,Hygroscopic weight gain (wt%) at 25°C/80% RH,[6]; listed as free crystal form A,0.39 wt%
same,Carr index,[7],51%
same,Carr index,[7]; listed as free crystal form A,51%
same,Average angle of repose (°),[7],47.1 °
same,Average bulk density,[7],0.11 g/mL
same,Average tapped density,[7],0.23 g/mL
same,Average angle of repose (°),[7]; listed as free crystal form A,47.1 °
same,Average bulk density,[7]; listed as free crystal form A,0.11 g/mL
same,Average tapped density,[7]; listed as free crystal form A,0.23 g/mL
same,Angle of repose (°),[7]; [8],49.0 ° and 47.3 ° and 45.0 °
same,Bulk density,[7]; [8],0.11 g/mL
same,Tapped density,"[7]; tapped 200 times, single values of three parallel tests",0.23 g/mL and 0.22 g/mL
